Measured values: US20130266557A1, “METHODS FOR TREATMENT OF A SARCOMA USING AN EPIMETABOLIC SHIFTER (COENZYME Q10)” (priority 2009, published 2013)
Where two headings read alike, the source gives them in different places.

Tests used:
[1] = cited from earlier work
NCIES0808 cells = assay: Two-dimensional gel analysis with MS identification; format: cell-based, human; conditions: − = down, 1 = no change; for Spot 154, Translin-associated factor X: modulation vs control media / Spot 240, Proteasome 26S subunit 13; Endophilin B1: modulation vs control media / Spot 284, Proteasome 26S subunit: modulation vs control media / Spot 583, hnRNP C1/C2: modulation vs control media / Spot 612, Myosin Regulatory Light Chain: modulation vs control media / Spot 667, Dismutase Cu/Zn Superoxide: modulation vs control media / Spot 685, hnRNP C1/C2: modulation vs control media / Spot 746, Actin-like 6A; Eukaryotic Initiation Factor 4All: modulation vs control media / Spot 938, Nuclear Chloride Channel protein: modulation vs control media / Spot 940, Ubiquilin 1; Phosphatase 2A: modulation vs control media: 3 hours; for Spot 452, acid phosphatase 1: modulation vs control media / Spot 477, diazepam binding inhibitor: modulation vs control media / Spot 530, ribosomal protein SA: modulation vs control media / Spot 652, proteasome beta 3: modulation vs control media / Spot 720, dCTP pyrophosphatase 1: modulation vs control media / Spot 773, proteasome beta 4: modulation vs control media / Spot 1057, Arsenite translocating ATPase; Spermine synthetase: modulation vs control media: 6 hours
Method: NCIES0808 cells were plated in T25 flasks in experimental conditions similar to those described in the PCR array section. At the end of the treatment time, cells were trypsinized as described in the PCR array section and washed twice in ice cold TBS and snap frozen in liquid nitrogen. Further processing for Western blots was carried out at UMass.
Before isoelectric focusing (IEF), samples were solubilized in 40 mM Tris, 7 M urea, 2 M thiourea, and 1% C7 zwitterionic detergent, reduced with tributylphosphine, and alkylated with 10 mM acrylamide for 90 min at room temperature. After the sample was run through a 10-kDa cutoff Amicon Ultra device with at least 3 volumes of the resuspension buffer, consisting of 7 M urea, 2 M thiourea, and 2% CHAPS to reduce the conductivity of the sample. One hundred micrograms of protein were subjected to IEF on 11-cm pH 3 to 10, pH 4 to 7 or pH 6 to 11 immobilized pH gradient strips (GE, Amersham, USA) to 100,000 volts hour. After IEF, immobilized pH gradient strips were equilibrated in 6 M urea, 2% SDS, 50 mM Tris-acetate buffer, pH 7.0, and 0.01% bromphenol blue and subjected to SDS-polyacrylamide gel electrophoresis on 8 to 16% Tris-HCl Precast Gel, 1 mm (Bio-Rad, USA). The gels were run in duplicate. They were fixed, stained in SYPRO Ruby, 80 mL/gel (Invitrogen, USA) and imaged on Fuji FLA-5100 laser scanner.
Analysis of all gel images was performed using Progenesis Discovery and Pro (Nonlinear Dynamics Inc., Newcastle upon Tyne, UK). After spot detection, matching, background subtraction, normalization, and filtering, data for SYPRO Ruby gel images was exported. […] Manual annotation of each statistically significant spots was performed to assure accurate detection.
Tryptic peptides extracted from respective gel plugs were dried down to a 10 ul volume and acidified with 1-2 ul of 1% TFA. Samples were loaded on an uC18 Zip Tip (Millipore, Corp) after pre-equilibration in 0.1% TFA. After washing with 2×10 ul aliquots of 0.1% TFA, samples were deposited directly onto the MALDI sample target using 1 ul of Matrix solution 15 mg/ml of 2,5 Dihydroxybenzoic Acid (MassPrep DHB, Waters Corp.) in 50:50 Acetonitrile: 0.1% TFA. Samples were allowed to air dry prior to insertion into the mass spectrometer. Analysis were performed on a Kratos Axima QIT (Shimadzu Instruments) matrix-assisted-laser desorption/ionization (MALDI) mass spectrometer. Peptides were analyzed in positive ion mode in mid mass range (700-3000 Da). The instrument was externally calibrated with Angiotensin II (1046.54), P14R (1533.86) and ACTH (18-39) 2465.20 Da. Precursors were selected based on signal intensity at a mass resolution width of 250 for CID fragmentation using Argon as the collision gas. Database searches were performed in house with Mascot (Matrix Sciences, Ltd.) using the Peptide Mass Fingerprint program for MS data and the MS/MS Ion Search program for CID data. All identifications were confirmed or established with CID (MS/MS) data.
NCIES0808 cells treated for 3, 6 and 24 hours were subjected to 2-D gel electrophoreses and were analyzed to identify protein-level changes relative to the control media samples. A comparative analysis of spots across multiple duplicated gels was performed, comparing the “control media sample” against all of the treated samples at both the 50 uM and 100 uM doses. The analysis included the identification of spot changes over the time course due to an increase, decrease, or post-translational modification.

Substance: Coenzyme Q10 [CoQ10]
- Share of CoQ10 in the reduced form ([1]; blood (plasma)): ~96%
- Share of CoQ10 in the reduced form ([1]; heart): about 61%
- Share of CoQ10 in the reduced form ([1]; intenstine): ~95%
- Share of CoQ10 in the reduced form ([1]; kidney): ~75%
- Share of CoQ10 in the reduced form ([1]; liver): ~95%
- Share of CoQ10 in the reduced form ([1]; muscle): ~65%
- Spot 154, Translin-associated factor X: modulation vs control media (NCIES0808 cells; 50 uM Q10): 1
- Spot 240, Proteasome 26S subunit 13; Endophilin B1: modulation vs control media (NCIES0808 cells; 50 uM Q10): −1.3
- Spot 284, Proteasome 26S subunit: modulation vs control media (NCIES0808 cells; 50 uM Q10): −1.1
- Spot 583, hnRNP C1/C2: modulation vs control media (NCIES0808 cells; 50 uM Q10): 1.4
- Spot 612, Myosin Regulatory Light Chain: modulation vs control media (NCIES0808 cells; 50 uM Q10): 1.4
- Spot 667, Dismutase Cu/Zn Superoxide: modulation vs control media (NCIES0808 cells; 50 uM Q10): −1.1
- Spot 685, hnRNP C1/C2: modulation vs control media (NCIES0808 cells; 50 uM Q10): 1.2
- Spot 746, Actin-like 6A; Eukaryotic Initiation Factor 4All: modulation vs control media (NCIES0808 cells; 50 uM Q10): −1.3
- Spot 938, Nuclear Chloride Channel protein: modulation vs control media (NCIES0808 cells; 50 uM Q10): −1.2
- Spot 940, Ubiquilin 1; Phosphatase 2A: modulation vs control media (NCIES0808 cells; 50 uM Q10): 1
- Spot 154, Translin-associated factor X: modulation vs control media (NCIES0808 cells; 100 uM Q10): −1.9
- Spot 240, Proteasome 26S subunit 13; Endophilin B1: modulation vs control media (NCIES0808 cells; 100 uM Q10): 1.5
- Spot 284, Proteasome 26S subunit: modulation vs control media (NCIES0808 cells; 100 uM Q10): −1.6
- Spot 583, hnRNP C1/C2: modulation vs control media (NCIES0808 cells; 100 uM Q10): 1.5
- Spot 612, Myosin Regulatory Light Chain: modulation vs control media (NCIES0808 cells; 100 uM Q10): 1.4
- Spot 667, Dismutase Cu/Zn Superoxide: modulation vs control media (NCIES0808 cells; 100 uM Q10): −1.4
- Spot 685, hnRNP C1/C2: modulation vs control media (NCIES0808 cells; 100 uM Q10): 1.2
- Spot 746, Actin-like 6A; Eukaryotic Initiation Factor 4All: modulation vs control media (NCIES0808 cells; 100 uM Q10): −1.2
- Spot 938, Nuclear Chloride Channel protein: modulation vs control media (NCIES0808 cells; 100 uM Q10): −1.2
- Spot 940, Ubiquilin 1; Phosphatase 2A: modulation vs control media (NCIES0808 cells; 100 uM Q10): 1.3
- Spot 452, acid phosphatase 1: modulation vs control media (NCIES0808 cells; 50 uM Q10): −1.3
- Spot 477, diazepam binding inhibitor: modulation vs control media (NCIES0808 cells; 50 uM Q10): −1.4
- Spot 530, ribosomal protein SA: modulation vs control media (NCIES0808 cells; 50 uM Q10): −1.2
- Spot 652, proteasome beta 3: modulation vs control media (NCIES0808 cells; 50 uM Q10): −1.1
- Spot 720, dCTP pyrophosphatase 1: modulation vs control media (NCIES0808 cells; 50 uM Q10): −1.2
- Spot 773, proteasome beta 4: modulation vs control media (NCIES0808 cells; 50 uM Q10): −1.1
- Spot 1057, Arsenite translocating ATPase; Spermine synthetase: modulation vs control media (NCIES0808 cells; 50 uM Q10): −1.1
- Spot 452, acid phosphatase 1: modulation vs control media (NCIES0808 cells; 100 uM Q10): −1.5
- Spot 477, diazepam binding inhibitor: modulation vs control media (NCIES0808 cells; 100 uM Q10): −1.2
- Spot 530, ribosomal protein SA: modulation vs control media (NCIES0808 cells; 100 uM Q10): −1.4
- Spot 652, proteasome beta 3: modulation vs control media (NCIES0808 cells; 100 uM Q10): −1.3
- Spot 720, dCTP pyrophosphatase 1: modulation vs control media (NCIES0808 cells; 100 uM Q10): −1.2
- Spot 773, proteasome beta 4: modulation vs control media (NCIES0808 cells; 100 uM Q10): −1.2
- Spot 1057, Arsenite translocating ATPase; Spermine synthetase: modulation vs control media (NCIES0808 cells; 100 uM Q10): −1.2
- Spot 16, alpha 2-HS glycoprotein (Bos Taurus, cow): modulation vs control media (NCIES0808 cells; 24 hours, 50 uM Q10): 1.4
- Spot 130, ribosomal proten P2; histone H2A: modulation vs control media (NCIES0808 cells; 24 hours, 50 uM Q10): −1.3
- Spot 180, beta actin: modulation vs control media (NCIES0808 cells; 24 hours, 50 uM Q10): 1.3
- Spot 234, hnRNP C1/C2: modulation vs control media (NCIES0808 cells; 24 hours, 50 uM Q10): −1.2
- Spot 244, heat shock protein 70 kD: modulation vs control media (NCIES0808 cells; 24 hours, 50 uM Q10): 1.1
- Spot 275, microtubule associated protein: modulation vs control media (NCIES0808 cells; 24 hours, 50 uM Q10): 1.1
- Spot 311, beta tubulin: modulation vs control media (NCIES0808 cells; 24 hours, 50 uM Q10): 1.7
